Assay results taken from patent US5202315A, “Cephalosporin compounds” (Lucky, Ltd., priority 1989, dated 1993).
Values after ≈ are worked out from the molar mass of the structure shown. Like-named read-outs stand apart in the source and are kept apart here.

Key:
[1] = system: Acinetobacter calcoaceticus ATCC 15473; assay: Antibacterial activity, MIC; assay type: cell-based; settings: ATCC15473, ATCC 15473, agar two-fold dilution, 37° C., 20 hours, read-out: MIC
How it was run: (§1)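 Values reflect agar dilution testing: Mueller-Hinton medium, two-fold compound series, 2 μl inoculum of 10^7 CFU/ml, 20 h incubation at 37 °C.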

[2] = system: Bacillus cereus ATCC 11778; assay: Antibacterial activity, MIC; assay type: cell-based; settings: ATCC11778, ATCC 11778, agar two-fold dilution, 37° C., 20 hours, read-out: MIC
How it was run: as §1

[3] = system: Bacillus megaterium ATCC 9885; assay: Antibacterial activity, MIC; assay type: cell-based; settings: Priestia megaterium, ATCC9885; ATCC 9885; agar two-fold dilution, 37° C., 20 hours; read-out: MIC
How it was run: as §1

[4] = system: Citrobacter freundii ATCC 8090; assay: Antibacterial activity, MIC; assay type: cell-based; settings: ATCC8090, ATCC 8090, agar two-fold dilution, 37° C., 20 hours, read-out: MIC
How it was run: as §1

[5] = system: Enterobacter aerogenes ATCC 29751; assay: Antibacterial activity, MIC; assay type: cell-based; settings: Klebsiella aerogenes, ATCC29751; ATCC 29751; agar two-fold dilution, 37° C., 20 hours; read-out: MIC
How it was run: as §1

[6] = system: Enterobacter cloacae ATCC 27508; assay: Antibacterial activity, MIC; assay type: cell-based; settings: ATCC27508, ATCC 27508, agar two-fold dilution, 37° C., 20 hours, read-out: MIC
How it was run: as §1

[7] = system: Escherichia coli ATCC 10536; assay: Antibacterial activity, MIC; assay type: cell-based; settings: ATCC10536, agar two-fold dilution, 37° C., 20 hours
How it was run: as §1

[8] = system: Escherichia coli ATCC 25922; assay: Antibacterial activity, MIC; assay type: cell-based; settings: ATCC25922, agar two-fold dilution, 37° C., 20 hours
How it was run: as §1

[9] = system: Klebsiella pneumoniae ATCC 10031; assay: Antibacterial activity, MIC; assay type: cell-based; settings: ATCC10031, ATCC 10031, agar two-fold dilution, 37° C., 20 hours, read-out: MIC
How it was run: as §1

[10] = system: Micrococcus luteus ATCC 9341; assay: Antibacterial activity, MIC; assay type: cell-based; settings: ATCC9341, ATCC 9341, agar two-fold dilution, 37° C., 20 hours, read-out: MIC
How it was run: as §1

[11] = system: Morganella morganii ATCC 8076h; assay: Antibacterial activity, MIC; assay type: cell-based; settings: ATCC8076H, agar two-fold dilution, 37° C., 20 hours
How it was run: as §1

[12] = system: Proteus mirabilis ATCC 25933; assay: Antibacterial activity, MIC; assay type: cell-based; settings: ATCC25933, ATCC 25933, agar two-fold dilution, 37° C., 20 hours, read-out: MIC
How it was run: as §1

[13] = system: Proteus vulgaris ATCC 6059; assay: Antibacterial activity, MIC; assay type: cell-based; settings: ATCC6059, ATCC 6059, agar two-fold dilution, 37° C., 20 hours, read-out: MIC
How it was run: as §1

[14] = system: Providencia rettgeri ATCC 9250; assay: Antibacterial activity, MIC; assay type: cell-based; settings: ATCC9250, agar two-fold dilution, 37° C., 20 hours
How it was run: as §1

[15] = system: Pseudomonas aeruginosa ATCC 10145; assay: Antibacterial activity, MIC; assay type: cell-based; settings: ATCC10145, ATCC 10145, agar two-fold dilution, 37° C., 20 hours, read-out: MIC
How it was run: as §1

[16] = system: Pseudomonas aeruginosa ATCC 25619; assay: Antibacterial activity, MIC; assay type: cell-based; settings: ATCC25619, ATCC 25619, agar two-fold dilution, 37° C., 20 hours, read-out: MIC
How it was run: as §1

[17] = system: Pseudomonas aeruginosa ATCC 27853; assay: Antibacterial activity, MIC; assay type: cell-based; settings: ATCC27853, ATCC 27853, agar two-fold dilution, 37° C., 20 hours, read-out: MIC
How it was run: as §1

[18] = system: Salmonella typhimurium ATCC 14028; assay: Antibacterial activity, MIC; assay type: cell-based; settings: Salmonella enterica; ATCC 14028; agar two-fold dilution, 37° C., 20 hours; read-out: MIC
How it was run: as §1

[19] = system: Serratia marcescens ATCC 27117; assay: Antibacterial activity, MIC; assay type: cell-based; settings: ATCC27117, ATCC 27117, agar two-fold dilution, 37° C., 20 hours, read-out: MIC
How it was run: as §1

[20] = system: Shigella flexneri ATCC 11836; assay: Antibacterial activity, MIC; assay type: cell-based; settings: ATCC11836, agar two-fold dilution, 37° C., 20 hours
How it was run: as §1

[21] = system: Shigella sonnei ATCC 11060; assay: Antibacterial activity, MIC; assay type: cell-based; settings: ATCC11060, ATCC 11060, agar two-fold dilution, 37° C., 20 hours, read-out: MIC
How it was run: as §1

[22] = system: Staphylococcus aureus ATCC 10537; assay: Antibacterial activity, MIC; assay type: cell-based; settings: ATCC10537, ATCC 10537, agar two-fold dilution, 37° C., 20 hours, read-out: MIC
How it was run: as §1

[23] = system: Staphylococcus aureus ATCC 6538p; assay: Antibacterial activity, MIC; assay type: cell-based; settings: ATCC6538P, ATCC 6538p, agar two-fold dilution, 37° C., 20 hours, read-out: MIC
How it was run: as §1

[24] = system: Staphylococcus epidermidis ATCC 12228; assay: Antibacterial activity, MIC; assay type: cell-based; settings: ATCC12228, ATCC 12228, agar two-fold dilution, 37° C., 20 hours, read-out: MIC
How it was run: as §1

[25] = system: Streptococcus faecalis ATCC 29212; assay: Antibacterial activity, MIC; assay type: cell-based; settings: Enterococcus faecalis, ATCC29212; ATCC 29212; agar two-fold dilution, 37° C., 20 hours; read-out: MIC
How it was run: as §1

Escherichia coli = assay: Antibacterial activity against clinically isolated strains, MIC; assay type: cell-based; settings: 38 clinical isolates, broth microdilution test
Klebsiella pneumoniae = assay: as above; assay type: cell-based; settings: 10 clinical isolates, broth microdilution test
[26] = system: Staphylococcus aureus methicillin susceptible; assay: as above; assay type: cell-based; settings: methicillin susceptible, 42 clinical isolates, broth microdilution test
[27] = system: Staphylococcus aureus methicillin resistant; assay: as above; assay type: cell-based; settings: methicillin resistant, 7 clinical isolates, broth microdilution test
Pseudomonas aeruginosa = assay: as above; assay type: cell-based; settings: 54 clinical isolates, broth microdilution test
[28] = In-vivo absorbency (plasma concentrations & pharmacokinetic parameters); set-up: species or system SD rat (male); settings: plasma, SD male rat, iv 20 mg/kg; for half-life: rat, iv, 20 mg/kg
Text: The blood samples from the femoral vein of the rats were taken every hour after administration, and analyzed by bio-assay(agar well method).
Tested animal: SD male Rat (220~340 g)

[29] = as above; set-up: species or system SD rat (male); settings: plasma, SD male rat, iv 20 mg/kg, read-out: Plasma Conc.

Row | Structure (SMILES) | MIC [1] [µg/mL] | MIC [2] [µg/mL] | MIC [3] [µg/mL] | MIC [4] [µg/mL] | MIC [5] [µg/mL] | MIC [6] [µg/mL] | MIC [7] [µg/mL] | MIC [8] [µg/mL] | MIC [9] [µg/mL] | MIC [10] [µg/mL] | MIC [11] [µg/mL] | MIC [12] [µg/mL] | MIC [13] [µg/mL] | MIC [14] [µg/mL] | MIC [15] [µg/mL] | MIC [16] [µg/mL] | MIC [17] [µg/mL] | MIC [18] [µg/mL] | MIC [19] [µg/mL] | MIC [20] [µg/mL] | further results
1 | CC(O/N=C(\C(=O)NC1C(=O)N2C(C(=O)[O-])=C(CSc3nc(N)cc(N)[n+]3N)CSC12)c1csc(N)n1)C(=O)O (centres unmarked) [Compound I-14] | 2 (≈ 3.28 µM) | 64 (≈ 105 µM) | 0.5 (≈ 0.819 µM) | 0.031 (≈ 0.0508 µM) | 0.5 (≈ 0.819 µM) | ≤ 0.008 | 0.031 (≈ 0.0508 µM) | 0.031 (≈ 0.0508 µM) | 0.031 (≈ 0.0508 µM) | 0.5 (≈ 0.819 µM) | ≤ 0.008 | 0.031 (≈ 0.0508 µM) | 0.031 (≈ 0.0508 µM) | ≤ 0.008 | 2 (≈ 3.28 µM) | 1 (≈ 1.64 µM) | 1 (≈ 1.64 µM) | 0.13 (≈ 0.213 µM) | 0.031 (≈ 0.0508 µM) | 0.031 (≈ 0.0508 µM) | MIC [21]: 0.016 µg/mL (≈ 0.0262 µM); MIC [22]: 2 µg/mL (≈ 3.28 µM); MIC [23]: 4 µg/mL (≈ 6.55 µM); MIC [24]: 1 µg/mL (≈ 1.64 µM); MIC [25]: > 128 µg/mL; MIC50 (Escherichia coli): 0.031 µg/mL (≈ 0.0508 µM); MIC90 (Escherichia coli): 0.063 µg/mL (≈ 0.103 µM); MIC50 (Klebsiella pneumoniae): 0.031 µg/mL (≈ 0.0508 µM); MIC90 (Klebsiella pneumoniae; read-out: MIC 90%): 0.063 µg/mL (≈ 0.103 µM); MIC50 [26]: 4 µg/mL (≈ 6.55 µM); MIC90 ([26]; read-out: MIC 90%): 4 µg/mL (≈ 6.55 µM); MIC50 [27]: > 128 µg/mL; MIC90 ([27]; read-out: MIC 90%): > 128 µg/mL; MIC50 (Pseudomonas aeruginosa): 1 µg/mL (≈ 1.64 µM); MIC90 (Pseudomonas aeruginosa; read-out: MIC 90%): 4 µg/mL (≈ 6.55 µM)
2 | CC[n+]1c(N)cc(N)nc1SCC1=C(C(=O)[O-])N2C(=O)C(NC(=O)/C(=N\OCC(=O)O)c3csc(N)n3)C2SC1 (centres unmarked) [Compound I-8] | 8 (≈ 13.1 µM) | 64 (≈ 105 µM) | 0.5 (≈ 0.82 µM) | 0.031 (≈ 0.0508 µM) | 1 (≈ 1.64 µM) | ≤ 0.008 | 0.031 (≈ 0.0508 µM) | 0.031 (≈ 0.0508 µM) | 0.016 (≈ 0.0262 µM) | 0.13 (≈ 0.213 µM) | ≤ 0.008 | 0.031 (≈ 0.0508 µM) | 0.016 (≈ 0.0262 µM) | 0.016 (≈ 0.0262 µM) | 4 (≈ 6.56 µM) | 2 (≈ 3.28 µM) | 2 (≈ 3.28 µM) | 0.063 (≈ 0.103 µM) | 0.031 (≈ 0.0508 µM) | 0.016 (≈ 0.0262 µM) | MIC [21]: 0.031 µg/mL (≈ 0.0508 µM); MIC [22]: 2 µg/mL (≈ 3.28 µM); MIC [23]: 4 µg/mL (≈ 6.56 µM); MIC [24]: 1 µg/mL (≈ 1.64 µM); MIC [25]: > 128 µg/mL; concentration at 1 h ([28]; 60 min, read-out: Plasma Conc.): 8700 ng/mL; concentration at 2 h ([28]; 120 min, read-out: Plasma Conc.): 2700 ng/mL; AUC ([28]; two compartment model): 43400 ng·h/mL; half-life ([28]; two compartment model, read-out: T1/2 (α)): 6 min; half-life ([28]; two compartment model, read-out: T1/2 (β)): 32 min; concentration at 1 min ([29]; 1 min): 121000 ng/mL; concentration at 2.5 min ([29]; 2.5 min): 92000 ng/mL; concentration at 5 min ([29]; 5 min): 64000 ng/mL; concentration at 10 min ([29]; 10 min): 48000 ng/mL; concentration at 20 min ([29]; 20 min): 36000 ng/mL; concentration at 40 min ([29]; 40 min): 15000 ng/mL
